The results in this text go back to US12383544B2, “Methods for the treatment of polycystic kidney disease” (Galapagos NV, priority 2019, dated 2025).

The target in one assay is T1, wt CFTR (CFTR channel) (Homo sapiens, UniProt P13569).
T1 construct: evaluate compounds on normal primary bronchial epithelial cells (HBE cells); endogenous in cells; host or cells: normal primary human bronchial epithelial (HBE) cells from donor lungs
The experiment in a line: TECC assay on normal primary human bronchial epithelial (HBE) cells. The format is cell-based. The conditions noted are these: 0.3 μM forskolin. The procedure:
The TECC assay is used to evaluate compounds on normal primary bronchial epithelial cells (HBE cells), which are closer to physiological conditions
Bronchial epithelial cells isolated from transplanted lungs from normal (wt CFTR) were isolated from lungs obtained from donors undergoing a planned transplantation. These primary cells were cultured directly on type IV collagen-coated polycarbonate Transwell supports with a diameter of 6.5 mm and pore size of 0.4 μm (Costar, #3397) for 18 to 25 days in air liquid (ali) interface essentially as previously described for TECC. (Fulcher et al. 2005)
Trans-epithelial clamp circuit (TECC) recordings were performed using the TECC instrument developed and sold by EP Design (Bertem, Belgium). During the recording, the epithelial cells were bathed in a NaCl-Ringer solution (120 mM NaCl, 20 mM HEPES, 1.2 mM CaCl2, 1.2 mM MgCl2, 0.8 mM KH2PO4, 0.8 mM K2HPO4, 5 mM glucose, pH 7.4) on both the basolateral (640 μl) and the apical side (160 μl) and kept at 37° C. Apical amiloride was used to inhibit the endogenous ENaC currents (100 μM) while forskolin (0.3 μM) was applied on both the apical and basolateral sides to stimulate CFTR. All triggers and compounds used during the experiment were first dissolved in DMSO to a 1000× concentrated solution, just prior to treatment a 10× stock was prepared in the NaCl-Ringer solution which was used for addition of the correct concentration of trigger and or compound during the experiment. Cells were treated with test compounds for 24 hours before recording and this treatment was repeated in the TECC buffer prior to the electrophysiological recording. Measurements were done during a 20-min timeframe with recordings every 2 min. The transepithelial potential (PD) and transepithelial resistance (Rt) were measured in an open circuit and transformed to Ieq using Ohm's law. The maximal increase in Ieq (Δ Ieq) was used as a measure for the increased CFTR activity.

The next assay has as its target T2, wild type human CFTR (Homo sapiens, UniProt P13569).
T2 construct: expressed in transfected cells; host or cells: HEK293
In words: Yellow Fluorescent Protein (YFP) halide assay in wild type CFTR (HEK293 cells). The format is cell-based. The conditions noted are these: HEK293 cells transfected with wild type human CFTR; 24 h incubation; 10 μM forskolin; read-out: EC50 of inhibition of WT CFTR. The protocol:
To evaluate the ability of a test compound to inhibit wild type CFTR, a YFP halide assay using HEK293 cells transfected with wild type human CFTR was developed. (Galietta, Jayaraman, and Verkman 2001) Cells were incubated during 24 h with a dose range of test compound and the resulting wild type CFTR activity was plotted to obtain the EC50.
Test compounds were also added together with forskolin to wild type CFTR expressing cells in order to fully active the available CFTR at the plasma membrane and determine accurately the inhibition of the channel activity.
HEK293 cells were transfected with 10 to 80 ng of wild type CFTR and 20 ng of plasmid encoding YFP (H148Q/I152L/F47L) using jetPEI (Polyplus transfection). Directly after transfection, cells were seeded in black 96-well plates coated with Poly-D-lysine at a density of 70,000 cells per well. The next day, cells were treated with corrector(s) for 24 h. After this incubation period, cells were washed twice with DPBS with Ca^2+ and Mg^2+. Subsequently, cells were treated with 10 μM forskolin and the desired concentration of potentiator in a volume of 40 μl and incubated at room temperature for 10 min, a time point optimized in previous experiments resulting in a good window (positive control/negative control >2) and signal to background ratio. YFP fluorescence was measured using an EnVision plate reader (PerkinElmer). […]

In assay [1] the test system is PKD1^flox/flox / ubiquitous CreER^T2 mice. In words: In vivo ADPKD mice model in combination with tolvaptan (meta-analysis of two experiments). From the text: The ADPKD mice model is based on PKD1^flox/flox (with lox sites flanking exons 2-4)/ubiquitous CreER^T2 mice in which the PKD1 gene is ubiquitously knock-out by the activation of the Cre recombinase by treatment of the mice with Tamoxifen at day 12 after birth (in nursing female). Homozygotous knock-out of the PKD1 gene leads to the rapid formation of kidney cysts mimicking to a certain extend the development of ADPKD disease in human.
Before experimentations, mouse colonies of PKD1^flox/flox (with lox sites flanking exons 2-4)/ubiquitous CreER^T2 were maintained at Charles River Laboratories (France). To induce Cre recombinase activity, tamoxifen (60 mg/kg in sunflower oil) was delivered in nursing females by intraperitoneal injection at postnatal day 12. Subsequently, tamoxifen-containing milk was administered to pups. Treatments started at 4 weeks of age for 11 weeks. Tolvaptan was incorporated in diet (0.1%) and given alone or in combination with Cpd 2, administered at 250 mg/kg, q. d., p.o. At initiation of treatment and on a regular basis during the study, serum was collected to determine levels of blood urea nitrogen (BUN) on a Spotchem bioanalyzer. At necropsy, kidneys were collected and weighed to determine kidney weight/body weight ratio.
Two independent experiments were conducted.
A two-way ANOVA with Dunnett post-hoc multiple comparisons of all experimental groups versus the diseased group has been applied to the log Fold Change (log FC) of BUN ([…]) at sacrifice (Week 15) versus BUN at Week 4 as function of Group and Study.
The mean fold change at week 15 (sacrifice) vs week 4 (treatment initiation) is calculated, assuming a 100% change for the diseased group (untreated).

T1 sequence (P13569 whole entry): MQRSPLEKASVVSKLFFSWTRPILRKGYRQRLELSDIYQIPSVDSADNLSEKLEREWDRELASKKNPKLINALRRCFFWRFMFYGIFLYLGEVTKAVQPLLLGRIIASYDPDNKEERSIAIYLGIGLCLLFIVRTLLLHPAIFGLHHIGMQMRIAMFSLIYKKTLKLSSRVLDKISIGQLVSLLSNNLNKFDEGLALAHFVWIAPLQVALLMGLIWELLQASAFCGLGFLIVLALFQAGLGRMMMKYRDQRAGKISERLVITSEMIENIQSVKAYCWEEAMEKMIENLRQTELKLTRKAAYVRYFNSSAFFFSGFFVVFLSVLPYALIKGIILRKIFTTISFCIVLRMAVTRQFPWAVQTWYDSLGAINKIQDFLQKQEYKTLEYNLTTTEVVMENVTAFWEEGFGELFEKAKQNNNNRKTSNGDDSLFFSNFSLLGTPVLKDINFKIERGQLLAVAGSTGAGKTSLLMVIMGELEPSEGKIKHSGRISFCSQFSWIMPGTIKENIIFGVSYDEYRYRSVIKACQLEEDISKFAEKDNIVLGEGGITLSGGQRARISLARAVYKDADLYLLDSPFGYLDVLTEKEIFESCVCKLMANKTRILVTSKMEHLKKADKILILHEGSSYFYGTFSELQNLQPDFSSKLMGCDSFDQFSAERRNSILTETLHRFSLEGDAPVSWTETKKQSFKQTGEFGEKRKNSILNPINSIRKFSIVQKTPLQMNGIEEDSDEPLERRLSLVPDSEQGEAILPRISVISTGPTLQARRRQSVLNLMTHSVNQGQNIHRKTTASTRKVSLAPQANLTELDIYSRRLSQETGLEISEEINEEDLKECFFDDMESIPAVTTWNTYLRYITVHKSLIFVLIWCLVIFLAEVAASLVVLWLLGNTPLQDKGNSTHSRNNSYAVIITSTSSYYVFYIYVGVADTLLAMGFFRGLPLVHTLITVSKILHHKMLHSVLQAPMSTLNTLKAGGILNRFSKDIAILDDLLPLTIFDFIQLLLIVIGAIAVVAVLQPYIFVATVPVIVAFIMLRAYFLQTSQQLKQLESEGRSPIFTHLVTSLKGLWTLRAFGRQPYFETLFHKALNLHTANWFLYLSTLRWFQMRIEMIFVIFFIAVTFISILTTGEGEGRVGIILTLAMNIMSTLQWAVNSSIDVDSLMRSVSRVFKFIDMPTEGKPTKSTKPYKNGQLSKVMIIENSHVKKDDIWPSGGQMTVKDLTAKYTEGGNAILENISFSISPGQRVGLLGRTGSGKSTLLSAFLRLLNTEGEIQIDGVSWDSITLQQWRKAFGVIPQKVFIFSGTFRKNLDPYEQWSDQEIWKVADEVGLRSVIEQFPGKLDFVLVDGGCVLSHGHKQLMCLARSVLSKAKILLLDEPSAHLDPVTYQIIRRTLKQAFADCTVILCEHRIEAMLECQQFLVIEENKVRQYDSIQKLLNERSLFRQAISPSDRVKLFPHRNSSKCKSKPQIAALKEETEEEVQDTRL
T2 sequence (P13569 whole entry): as above

For the compound `COC1CCN(C2CCN(c3cc(C(=O)NS(=O)(=O)N(C)C)nc4c3c(C3CCC3)nn4-c3ccc(F)cc3)CC2)CC1` [Cpd 2], on wt CFTR (CFTR channel), the pIC50 – broadly, the IC50 on a negative log10 scale, so that one unit is a factor of ten – came to 7.50. Moreover, at wt CFTR (CFTR channel) (read-out: IC50 value (resulting from pIC50) (converted)), the IC50 (in general, the concentration that inhibits the measured activity by half) was 32 nM. The EC50 – broadly, the concentration giving half of the maximal effect – on wild type human CFTR worked out at 102 nM.
Take `Cc1ccccc1C(=O)Nc1ccc(C(=O)N2CCCC(O)c3cc(Cl)ccc32)c(C)c1` (stereo not drawn) [Tolvaptan, tolvaptan]: in assay [1] (Cpd 2 250 mg/kg q.d. p.o., Tolvaptan 0.1% in diet, treatment from 4 weeks of age for 11 weeks), the “BUN Mean fold changes on week 15 vs week 4” value was determined as 1.889. For the same compound, the “BUN fold change vs the diseased group (in words)” value in assay [1] (administered from week 4 to week 15) is “did not result in a significant fold change”. The “BUN % of Mean Diseased fold change” value in assay [1] (week 15 vs week 4, diseased group = 100, Cpd 2 250 mg/kg q.d. p.o., Tolvaptan 0.1% in diet) worked out at 80.7%.
